# Marks after values point to notes of the source that are not given here.
# Assays:
# Format in all cases: in vivo, rat
# Myocardial Mitochondria = assay: Myocardial mitochondrial glutathione antioxidant status, old male and female rats; details: liposome-encapsulated in drinking water, 10 mg/kg daily, 35 days
# Protocol: Aged male and female rats (˜12 months old) were administered with liposome-encapsulated (−) Schisandrin B in drinking water for 35 days, with the daily dose estimated to be 10 mg/kg.
# Male/Female adult Sprague-Dawley rats (˜12 months old) were maintained under a 12-h dark/light cycle at about 22° C. and allowed food and water ad libitum. Animals were randomly divided into groups, with at least 5 animals in each. In the pretreatment groups, rats were treated with liposome-encapsulated (−) Schisandrin B in drinking water for 35 days, with the estimated daily dose of 10 mg/kg. Control animals received empty liposomes-containing drinking water. Twenty-four hours following the last dosing, hearts were isolated from control or drug-pretreated rats and then subjected to Langendorff perfusion as described below.
# Myocardial tissue samples were rinsed with ice-cold isotonic buffer (50 mM Tris, 0.32 M sucrose, 1 mM Na2EDTA, 0.2 mg/ml soybean trypsin inhibitor, 0.2 mg/ml bacitracine, 0.16 mg/ml benzamidine). Tissue homogenates were prepared by homogenizing 0.8 g of myocardial tissue in 8 ml ice-cold isotonic buffer and the homogenates were used for the preparation of mitochondrial fractions by differential centrifugation, as described in Chiu and Ko (2004). The mitochondrial pellets were resuspended in 1.5 ml of isotonic buffer containing 150 μl of 2 mg/ml soybean trypsin inhibitor and constituted the mitochondrial fractions.
# Aliquots (500 μl) of mitochondrial fractions were taken for measuring mitochondrial GSH level by HPLC methods, using GSH as standards, respectively, as described (Chiu et al 2002). Aliquots (400 μl) of mitochondrial fractions were mixed with 933 μl Triton X-100 solution (0.3%, v/v, in isotonic buffer) and sonicated for 2 min on ice. The mixtures were then subjected to measurements of mitochondrial glutathione reductase (GRD), Se-glutathione peroxidase (GPX) and glutathione S-transferases (GST) activities by spectrophotometric methods, as described in Chiu et al. (2002).
# [1] = tested on: mitochondria of brain, heart, liver and skeletal muscle; assay: Mitochondrial antioxidant status in various tissues of young female rats; details: (−) Sch B, α-LA, α-Toc at daily 10, 5 and 70 mg/kg respectively, 15 days
# Protocol: The dosages were determined with reference to the equivalent amount of crude herb prescribed for human or the daily recommended intake in health supplements. The control animals received olive oil only. Twenty-four hours after the last dose, the pentobarbital-anesthetized animals were sacrificed by cardiac excision, and brain. heart, liver and skeletal muscle tissues were obtained. Tissue samples (brain, heart, liver, and skeletal muscle) were rinsed with ice-cold isotonic buffer (50 mM Tris, 0.32 M sucrose, 1 mM Na2EDTA, 0.2 mg/ml soybean trypsin inhibitor, 0.2 mg/ml bacitracine, 0.16 mg/ml benzamidine). Tissue homogenates were prepared by homogenizing 0.8 g of myocardial tissue in 8 ml ice-cold isotonic buffer and the homogenates were used for the preparation of mitochondrial fractions by differential centrifugation, as described in Chiu and Ko (2004). The mitochondrial pellets were resuspended in 1.5 ml of isotonic buffer containing 150 μl of 2 mg/ml soybean trypsin inhibitor and constituted the mitochondrial fractions. […] (St. Louis, Mo., USA). […] Aliquots (400 μl) of mitochondrial fractions were mixed with 933 μl Triton X-100 solution (0.3%, v/v, in isotonic buffer) and sonicated for 2 min on ice. The mixtures were then subjected to measurements of mitochondrial glutathione reductase (GRD), Se-glutathione peroxidase (GPX) and glutathione S-transferases (GST) activities by spectrophotometric methods, as described in Chiu et al. (2002).
# [2] = tested on: mitochondria of brain, heart, liver and skeletal muscle; assay: Mitochondrial ATP generation capacity in various tissues of young female rats; details: 15 days; for ATP generation: (−) Sch B, α-LA, α-Toc at daily 10, 5 and 70 mg/kg respectively
smiles,measurement,setting,value
"COc1cc2c(c(OC)c1OC)-c1c(cc3c(c1OC)OCO3)CC(C)C(C)C2 (single isomer, unassigned; (-)) [(−) Sch B, (−) Schisandrin B]",GPX,Myocardial Mitochondria; old female rats (~12 months),44.6 ± 4.29 mU/mg Protein
same,GRD,Myocardial Mitochondria; old female rats (~12 months),5.65 ± 0.65 mU/mg protein
same,GSH,Myocardial Mitochondria; old female rats (~12 months),6.80 ± 0.28^b nmol/mg protein
same,GST,Myocardial Mitochondria; old female rats (~12 months),14.0 ± 0.45^b mU/mg protein
same,"GRD, percent increase vs untreated control",Myocardial Mitochondria; old female rats,(13%)
same,"GSH, percent increase vs untreated control",Myocardial Mitochondria; old female rats,(31%)
same,GPX,Myocardial Mitochondria; old male rats (~12 months),52.2 ± 0.72^a mU/mg Protein
same,GRD,Myocardial Mitochondria; old male rats (~12 months),3.72 ± 0.29^a mU/mg protein
same,GSH,Myocardial Mitochondria; old male rats (~12 months),4.43 ± 0.09^a nmol/mg protein
same,GST,Myocardial Mitochondria; old male rats (~12 months),17.5 ± 0.76 mU/mg protein
same,"GPX, percent increase vs untreated control",Myocardial Mitochondria; old male rats,(15%)
same,"GRD, percent increase vs untreated control",Myocardial Mitochondria; old male rats,(39%)
same,"GSH, percent increase vs untreated control",Myocardial Mitochondria; old male rats,(265%)
same,GPX,[1]; BRAIN,163 ± 9 percent control
same,GRD,[1]; BRAIN,150 ± 9 percent control
same,GSH,[1]; BRAIN,147 ± 4 percent control
same,GST,[1]; BRAIN,143 ± 4 percent control
same,α-Toc level,[1]; BRAIN,141 ± 7 percent control
same,GPX,[1]; HEART,143 ± 7 percent control
same,GRD,[1]; HEART,163 ± 6 percent control
same,GSH,[1]; HEART,159 ± 2 percent control
same,GST,[1]; HEART,161 ± 5 percent control
same,α-Toc level,[1]; HEART,160 ± 13 percent control
same,GPX,[1]; LIVER,135 ± 3 percent control
same,GRD,[1]; LIVER,161 ± 10 percent control
same,GSH,[1]; LIVER,175 ± 5 percent control
same,GST,[1]; LIVER,154 ± 4 percent control
same,α-Toc level,[1]; LIVER,167 ± 14 percent control
same,GPX,[1]; SKELETAL MUSCLE,125 ± 5 percent control
same,GRD,[1]; SKELETAL MUSCLE,166 ± 4 percent control
same,GSH,[1]; SKELETAL MUSCLE,137 ± 1 percent control
same,GST,[1]; SKELETAL MUSCLE,171 ± 10 percent control
same,α-Toc level,[1]; SKELETAL MUSCLE,178 ± 13 percent control
same,ATP generation,[2]; BRAIN,143 ± 2 percent control
same,ATP generation,[2]; HEART,131 ± 4 percent control
same,ATP generation,[2]; LIVER,134 ± 5 percent control
same,change in ATP generation in skeletal muscle tissue,"[2]; SKELETAL MUSCLE, 10 mg/kg daily",No detectable change
same,ATP generation,[2]; SKELETAL MUSCLE,105 ± 41 percent control

# Reference: US7531195B2, “Schisandrin B preparation” (priority 2005, dated 2009)
